{"source": "patent US11524938B2", "about": "“Aromatic sulfonamide derivatives” (Bayer Pharma Aktiengesellschaft, priority 2016, dated 2022)", "target": "T1, endogenous P2X4 channels (Homo sapiens, UniProt Q99571)", "T1 construct": "measure calcium influx through endogenous P2X4 channels into primary human monocytes", "T1 sequence (Q99571 1-388)": "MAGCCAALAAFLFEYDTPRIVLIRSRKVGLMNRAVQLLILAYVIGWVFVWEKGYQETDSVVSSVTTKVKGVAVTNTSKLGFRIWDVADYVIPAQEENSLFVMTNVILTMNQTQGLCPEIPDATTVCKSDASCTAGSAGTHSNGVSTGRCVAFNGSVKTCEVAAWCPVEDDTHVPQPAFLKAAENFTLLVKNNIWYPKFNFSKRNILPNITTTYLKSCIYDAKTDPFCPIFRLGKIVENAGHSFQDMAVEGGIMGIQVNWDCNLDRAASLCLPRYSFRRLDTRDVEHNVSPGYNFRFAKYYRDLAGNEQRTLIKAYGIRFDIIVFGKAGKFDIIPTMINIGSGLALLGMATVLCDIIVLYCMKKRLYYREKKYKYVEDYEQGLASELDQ", "assay": "Human Monocyte P2X4 Assay (FLIPR)", "type": "cell-based", "conditions": "primary human monocytes, 3 μM BzATP, one value per donor", "protocol": "The principle of the assay is to measure calcium influx through endogenous P2X4 channels into primary human monocytes, following activation by 2′,3′-O-(4-benzoyl-benzoyl)-ATP (Bz-ATP). Intracellular calcium concentration changes were measured with a Flipr® (Molecular Devices) device using a calcium sensitive dye (Fluo-8). In primary monocytes P2X4 is located at the lysosome membrane, therefore exocytosis has to be triggered to expose P2X4 at the cellular membrane.\nHuman peripheral blood mononuclear cells (PBMCs) from anticoagulated blood (blood cells, BC) were isolated via density gradient centrifugation. Whole blood was diluted 1:3 with PBS. Samples of 30 mL were layered carefully on top of 15 mL Biocoll (BIOCHROM) in 50 mL centrifuge tubes (Falcon). Tubes were centrifuged at 914×g for 25 min at RT without brake. The PBMC layer was removed with a 10 mL pipette and transferred into tubes with ice-cold PBS in a total volume of 50 mL. Cells were washed twice by pelleting at 300×g at 4° C., for 10 min and for 5 min respectively. PBMCs were re-suspended in 10 mL medium (X-vivo, Biozym Scientific) and counted in a Neubauer chamber.\nMonocytes were isolated by negative selection using the Monocyte isolation kit II from Miltenyi (#130-091-153) according to the instructions. Isolation should be done fast and cells and solutions should be kept on ice at any time. PBMCs in batches of 10 exp8 cells were pelleted (300×g, 10 min) and re-suspended with 300 μL MACS buffer in a 50 mL Falcon tube. FcR Blocking reagent (100 μl) and Biotin-Ab (100 μl) were added, mixed and incubated on ice for 10 min. MACS buffer (300 μL) and anti-Biotin Micro-beads (100 μL) were added, mixed and incubated on ice for 15 min. Cells were washed by pelleting (300×g for 10 min) and re-suspended in 500 μL MACS buffer. For each batch one separation column was placed in the MACS separator and rinsed with 3 mL MACS buffer. The cell suspension was added to the column, followed by 3×3 mL MACS buffer for washing, and the eluent containing the monocytes was collected. Cells were pelleted (300×g for 10 min), re-suspended in X-vivo medium and counted. Monocytes were seeded into fibronectin-coated micro-plates (384-well, black, flat transparent bottom; Corning #3848) at a density of 30,000 cells/well in 50 μL, and cultivated over night (37° C., 5% CO2).\nTest substances were dissolved in 100% DMSO at a stock concentration of 10 mM and stored at −20° C. in aliquots. Serial dilutions (2×) were prepared in DMSO and diluted 500× with assay buffer to generate the antagonist plate. In the Flipr measurement, 10 μL per well were transferred (4× dilution) and a final top concentrations of 5 μM and 0.05% DMSO were obtained in the assay. Agonist BzATP was stored at 10 mM in aliquots and diluted to an intermediate concentration of 15 μM to generate the agonist plate. In the Flipr measurement, 10 μL per well were transferred (5× dilution) so that a final assay concentration of 3 μM was obtained.\nFor the experiment, the medium of the cell plate was discarded manually and 70 μL/well loading buffer was added and incubated for 1 h (37° C., 5% CO2). Loading buffer contained HBSS (w/o calcium/magnesium), 10 mM Hepes pH 7.4, 5 μM Fluo-8 (AM) (Tebu-bio) and 50 mM methylamine (Sigma) to trigger exocytosis. Loading buffer was discarded manually and 30 μL/well low-calcium assay buffer (5 mM KCl, 145 mM NaCl, 0.5 mM CaCl2, 13 mM glucose, 10 mM Hepes pH 7.4) was added. The antagonist plate was transferred (10 μL/well) and after 15 min at RT the agonist plate (10 μL/well) was transferred.\nAgonist addition was recorded for 240 seconds after a 10 second baseline. For analysis, a baseline correction was applied, and the maximum of the curve was extracted. Data were normalized towards 0% inhibition (signal at 3 μM BzATP) and 100% inhibition (absence of BzATP stimulation) and fitted with a four-parameter sigmoidal inhibition curve using Prism GraphPad to obtain IC50 values.", "note": "Where “and” joins values, the source holds several entries; their conditions need not be identical. Identical values can stand only once."}
{"compound": "N#Cc1cnn(-c2ccc(NC(=O)Cc3ccccc3Cl)cc2S(N)(=O)=O)c1", "note": "[Example 39, 2-(2-Chlorophenyl)-N-[4-(4-cyano-1H-pyrazol-1-yl)-3-sulfamoylphenyl]acetamide]", "values": [{"measurement": "Human P2X4 Monocytes (FLIPR Assay) Efficacy for different donors", "result": "81% and 78%"}]}
